In patent US9790233B2, “Compositions and methods of modulating 15-PGDH activity” (CASE WESTERN RESERVE UNIVERSITY, priority 2012, dated 2017):

Legend:
liver = assay: Liver regeneration after partial hepatectomy; format: in vivo, mice
A549 cells = assay: Cellular toxicity on A549 cells (CellTiter-Glo); format: cell-based; conditions: 24 hours; concentrations of up to 10 uM
[1] = Survival of irradiated mice receiving a bone marrow transplant; format: in vivo, C57BL/6J mice
Description: The experimental design is depicted in FIG. 50.
Under the conditions of the mouse colony during this study, control mice receiving 100,000-500,000 cells are all dead between days 4-13 of study. […] Such activity would be of particular utility in settings, such as transplantation with umbilical cord stem cells, in which donor cell numbers are limited.

CCCC[S+]([O-])c1sc2nc(-c3cccs3)cc(-c3ccccc3)c2c1N (centres unmarked) [SW033291, 2-(butylsulfinyl)-4-phenyl-6-(thiophen-2-yl)thieno[2,3-b]pyridin-3-amine]
serum ALT levels (liver; 5 mg/kg IP bid, one mouse versus one control mouse): ALT values are lower
hepatic mitosis versus controls (liver; days 3 and 4): significantly increased hepatic mitosis
BrdU positive (S-phase) cells in liver (liver; post-operative day 2): clear increase in numbers of BrdU positive cells
effect on CellTitre-Glo levels (A549 cells): No effect on CellTitre-Glo levels
number of surviving mice ([1]; 1 × 10^5 donor marrow cells, Day 2): 3
number of surviving mice ([1]; 1 × 10^5 donor marrow cells, Day 3): 3
number of surviving mice ([1]; 1 × 10^5 donor marrow cells, Day 4): 2
number of surviving mice ([1]; 1 × 10^5 donor marrow cells, Day 5): 1
number of surviving mice ([1]; 1 × 10^5 donor marrow cells, Day 6): 0
number of surviving mice ([1]; 2 × 10^5 donor marrow cells, Day 2): 3
number of surviving mice ([1]; 2 × 10^5 donor marrow cells, Day 3): 3
number of surviving mice ([1]; 2 × 10^5 donor marrow cells, Day 4): 3
number of surviving mice ([1]; 2 × 10^5 donor marrow cells, Day 5): 3
number of surviving mice ([1]; 2 × 10^5 donor marrow cells, Day 6): 2
number of surviving mice ([1]; 2 × 10^5 donor marrow cells, Day 7): 2
number of surviving mice ([1]; 2 × 10^5 donor marrow cells, Day 8): 2
number of surviving mice ([1]; 2 × 10^5 donor marrow cells, Day 9): 2
number of surviving mice ([1]; 2 × 10^5 donor marrow cells, Day 10): 2
number of surviving mice ([1]; 2 × 10^5 donor marrow cells, Day 11): 2
number of surviving mice ([1]; 2 × 10^5 donor marrow cells, Day 12): 1
number of surviving mice ([1]; 2 × 10^5 donor marrow cells, Day 13): 0
number of surviving mice ([1]; 5 × 10^5 donor marrow cells, Day 2): 3
number of surviving mice ([1]; 5 × 10^5 donor marrow cells, Day 3): 3
number of surviving mice ([1]; 5 × 10^5 donor marrow cells, Day 4): 3
number of surviving mice ([1]; 5 × 10^5 donor marrow cells, Day 5): 3
number of surviving mice ([1]; 5 × 10^5 donor marrow cells, Day 6): 3
number of surviving mice ([1]; 5 × 10^5 donor marrow cells, Day 7): 3
number of surviving mice ([1]; 5 × 10^5 donor marrow cells, Day 8): 2
number of surviving mice ([1]; 5 × 10^5 donor marrow cells, Day 9): 2
number of surviving mice ([1]; 5 × 10^5 donor marrow cells, Day 10): 2
number of surviving mice ([1]; 5 × 10^5 donor marrow cells, Day 11): 2
number of surviving mice ([1]; 5 × 10^5 donor marrow cells, Day 12): 2
number of surviving mice ([1]; 5 × 10^5 donor marrow cells, Day 13): 2
number of surviving mice ([1]; 5 × 10^5 donor marrow cells, Day 19): 2
number of surviving mice ([1]; 11 Gy, 5 mg/kg IP bid, 1 × 10^5 donor marrow cells, Day 1): 3
number of surviving mice ([1]; 11 Gy, 5 mg/kg IP bid, 2 × 10^5 donor marrow cells, Day 1): 3
number of surviving mice ([1]; 11 Gy, 5 mg/kg IP bid, 5 × 10^5 donor marrow cells, Day 1): 3
survival of transplanted mice ([1]; mouse, in vivo): promoted survival of mice receiving a bone marrow transplant
